Structures can show the parent of a compound that is named as a salt.
Legend:
5HT uptake = 5HT uptake (Homo sapiens, UniProt P31645); test: biochemical; details: read-out: 5HT uptake inhibition Ki values
μ-Opioid receptor [1] = target: μ-Opioid receptor (Rattus norvegicus, UniProt P33535); test: μ-Opioid receptor binding (rat)
duration of immobility = test: Tail suspension test on mice; assay type: in vivo
From the text: Rodents left hanging by the tail rapidly become immobile. Antidepressants reduce the duration of the immobility, while tranquilizers prolong the duration of the immobility. […] Several mice were investigated in parallel and the duration of immobility determined. […] 10-20 mice were investigated per group. […] In this behavioural model, antidepressants, as also in other behavioural models, lead to a shortening of the immobility phase, while opioids such as morphine prolong the immobility phase.

NA uptake = NA uptake (Homo sapiens, UniProt P23975); test: biochemical; details: read-out: NA uptake inhibition Ki values
Sequence of NA uptake (P23975 whole entry): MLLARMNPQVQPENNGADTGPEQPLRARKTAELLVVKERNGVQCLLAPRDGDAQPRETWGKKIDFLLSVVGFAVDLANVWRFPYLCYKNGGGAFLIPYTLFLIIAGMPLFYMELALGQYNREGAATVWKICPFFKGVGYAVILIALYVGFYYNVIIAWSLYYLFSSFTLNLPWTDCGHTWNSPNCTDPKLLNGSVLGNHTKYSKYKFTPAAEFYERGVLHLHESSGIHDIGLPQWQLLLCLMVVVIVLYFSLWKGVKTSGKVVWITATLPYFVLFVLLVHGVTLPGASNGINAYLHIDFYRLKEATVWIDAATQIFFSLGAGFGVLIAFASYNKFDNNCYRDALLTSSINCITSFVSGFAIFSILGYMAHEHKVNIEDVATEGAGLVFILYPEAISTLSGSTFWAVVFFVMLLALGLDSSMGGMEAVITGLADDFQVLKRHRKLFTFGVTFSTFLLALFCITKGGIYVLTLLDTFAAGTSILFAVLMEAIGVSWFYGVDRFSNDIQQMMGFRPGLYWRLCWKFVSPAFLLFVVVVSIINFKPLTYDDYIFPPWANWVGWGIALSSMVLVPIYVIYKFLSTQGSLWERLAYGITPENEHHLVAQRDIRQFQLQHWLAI

μ-Opioid receptor [2] = target: T1, μ-Opioid receptor (Homo sapiens, UniProt P35372); test: μ-Opioid receptor binding (human)
Target sequence in this assay (P35372 whole entry): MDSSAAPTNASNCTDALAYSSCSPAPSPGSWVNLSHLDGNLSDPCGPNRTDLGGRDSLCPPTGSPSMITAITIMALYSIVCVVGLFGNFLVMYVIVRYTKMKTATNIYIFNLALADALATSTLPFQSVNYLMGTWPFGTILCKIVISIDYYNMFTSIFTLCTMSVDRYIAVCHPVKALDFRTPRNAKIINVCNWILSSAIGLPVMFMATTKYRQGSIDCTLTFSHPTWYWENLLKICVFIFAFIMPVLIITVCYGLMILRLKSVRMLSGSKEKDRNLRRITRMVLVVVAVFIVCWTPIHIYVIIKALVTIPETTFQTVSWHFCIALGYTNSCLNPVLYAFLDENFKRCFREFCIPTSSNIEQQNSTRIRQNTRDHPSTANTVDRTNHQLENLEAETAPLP

μ-Opioid receptor [3] = target: T1, μ-Opioid receptor; test: μ-Opioid receptor binding (species not given)
Target sequence in this assay (P35372 whole entry, species assumed): as the sequence (P35372 whole entry) above

[4] = 4.64 mg/kg i.p., 30 minutes before the test

Sequence of 5HT uptake (P31645 whole entry): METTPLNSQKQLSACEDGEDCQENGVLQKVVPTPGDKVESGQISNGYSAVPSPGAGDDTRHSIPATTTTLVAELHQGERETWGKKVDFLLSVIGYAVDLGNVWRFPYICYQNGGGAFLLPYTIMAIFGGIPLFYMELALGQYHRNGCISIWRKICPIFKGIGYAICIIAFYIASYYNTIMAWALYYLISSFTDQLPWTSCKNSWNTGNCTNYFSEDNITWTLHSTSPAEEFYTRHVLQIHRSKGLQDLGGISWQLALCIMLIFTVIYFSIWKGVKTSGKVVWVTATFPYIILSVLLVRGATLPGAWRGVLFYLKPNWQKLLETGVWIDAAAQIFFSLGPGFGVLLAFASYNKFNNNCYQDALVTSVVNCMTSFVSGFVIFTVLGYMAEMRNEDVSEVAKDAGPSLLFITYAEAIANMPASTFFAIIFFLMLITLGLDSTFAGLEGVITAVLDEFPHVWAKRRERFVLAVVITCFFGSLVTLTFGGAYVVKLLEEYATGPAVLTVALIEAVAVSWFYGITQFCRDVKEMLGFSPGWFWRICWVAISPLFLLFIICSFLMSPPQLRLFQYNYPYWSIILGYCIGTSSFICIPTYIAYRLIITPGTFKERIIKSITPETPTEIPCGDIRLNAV
Sequence of μ-Opioid receptor (Rattus norvegicus, UniProt P33535) (P33535 whole entry): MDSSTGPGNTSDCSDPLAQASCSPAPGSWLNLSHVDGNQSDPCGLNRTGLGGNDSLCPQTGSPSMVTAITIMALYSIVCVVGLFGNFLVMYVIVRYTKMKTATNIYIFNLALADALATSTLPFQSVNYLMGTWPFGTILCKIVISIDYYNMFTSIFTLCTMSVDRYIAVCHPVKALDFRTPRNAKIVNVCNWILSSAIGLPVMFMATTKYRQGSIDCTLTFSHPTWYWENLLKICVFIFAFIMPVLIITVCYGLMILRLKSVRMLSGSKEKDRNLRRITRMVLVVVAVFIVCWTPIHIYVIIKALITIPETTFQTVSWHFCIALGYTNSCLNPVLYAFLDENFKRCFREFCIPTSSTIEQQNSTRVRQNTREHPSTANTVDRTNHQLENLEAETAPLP

SMILES: CN(C)C[C@@H]1CCCC[C@H]1c1cccc(O)c1.Cl [(1R,2R)-3-(2-dimethylaminomethyl-cyclohexyl)-phenol; hydrochloride]
- Ki (5HT uptake): 50 nM
- Ki (μ-Opioid receptor [1]): 38 nM
- Duration of immobility % change compared with the solvent control (duration of immobility; [4]): +6%
- Duration of immobility (in words) (duration of immobility; after pretreatment with naloxone): marked decrease in the duration of immobility
- Duration of immobility compared with the solvent control (in words) (duration of immobility; without naloxone pretreatment): only a slight change in the duration of immobility
- Ki (NA uptake): 160 nM

SMILES: CNC[C@@H]1CCCC[C@H]1c1cccc(O)c1 [(1R,2R)-3-(2-methylaminomethyl-cyclohexyl)-phenol, hydrochloride]
- Ki (5HT uptake): 9410 nM
- Ki (μ-Opioid receptor [2]): 910 nM
- Ki (NA uptake): 560 nM

SMILES: CNCCCN1c2ccccc2CCc2ccccc21 [Desipramine, desipramine]
- μ-Opioid receptor Ki values (μ-Opioid receptor [3]): inactive

SMILES: CNCCC(Oc1ccc(C(F)(F)F)cc1)c1ccccc1 (stereo not shown) [Fluoxetine, fluoxetine]
- μ-Opioid receptor Ki values (μ-Opioid receptor [3]): inactive

SMILES: CN(C)CCCN1c2ccccc2CCc2ccccc21 [Imipramine, imipramine]
- Duration of immobility % change compared with the solvent control (duration of immobility; 31.6 mg/kg i.p., 30 minutes before the test): −61%

SMILES: CN1CC[C@]23c4c5ccc(O)c4O[C@H]2[C@@H](O)C=C[C@H]3[C@H]1C5 [Morphine, morphine]
- Duration of immobility % change compared with the solvent control (duration of immobility; [4]): +90%
- Duration of immobility % change compared with the solvent control (duration of immobility; 10.0 mg/kg i.p., 30 minutes before the test): +145%
- Duration of immobility % change compared with the solvent control (duration of immobility; 21.5 mg/kg i.p., 30 minutes before the test): +169%

SMILES: C=CCN1CC[C@]23c4c5ccc(O)c4O[C@H]2C(=O)CC[C@@]3(O)[C@H]1C5 [Naloxone, naloxone]
- Duration of immobility % change compared with the solvent control (duration of immobility; 1.0 mg/kg i.v.): −15%

From patent US20110263699A1 (priority 2002, published 2011)
